Reference: ChEMBL document CHEMBL1121780, “Synthesis and antiarrhythmic activity of new benzofuran derivatives” (J Med Chem, 1981)
Where “and” joins values, the source holds several entries; their conditions need not be identical. Identical values can stand only once. Calls of active or inactive are those of the source. The calls are words filed in the database; no cut-off is given here.

Columns and labels:
Canis familiaris [1] = organism: Canis familiaris; assay: Duration for the sinus rhythm recovery was measured; assay type: functional, Canis lupus familiaris
Canis familiaris [2] = assay: Activity against harris coronary ligation induced ventricular arrhythmia was measured as percent of initial sinus complexes after dose 2 mg/kg, iv; Inactive; assay type: functional, organism-based; parameters: dose 2 mg/kg; details: Canis lupus familiaris; Cardiac ventricle; at 2 mg/kg
Canis familiaris [3] = assay: Activity against ouabain-induced ventricular arrhythmia was measured as percent of sinus rhythm recovery at dose of 2 mg/kg iv; assay type: functional, Canis lupus familiaris, Cardiac ventricle
[4] = Toxicity estimated in mouse as LD50 by intravenous administration; assay type: organism-based; details: in vivo
Canis familiaris [5] = assay: Activity against harris coronary ligation induced ventricular arrhythmia was measured as percent of initial sinus complexes after dose 4 mg/kg iv; Inactive; assay type: functional, organism-based; parameters: dose 4 mg/kg; details: Canis lupus familiaris; Cardiac ventricle; at 4 mg/kg
Canis familiaris [6] = assay: Activity against ouabain-induced ventricular arrhythmia was measured as percent of sinus rhythm recovery at dose of 4 mg/kg iv; assay type: functional, Canis lupus familiaris, Cardiac ventricle
Canis familiaris [7] = organism: Canis familiaris; assay: Activity against ouabain-induced ventricular arrhythmia was measured as percent of sinus rhythm recovery; Inactive; assay type: functional, organism-based; details: Canis lupus familiaris; Cardiac ventricle
Canis familiaris [8] = organism: Canis familiaris; assay: Activity against ouabain-induced ventricular arrhythmia was measured as percent of sinus rhythm recovery; Estimated as too toxic to be tested; assay type: functional, organism-based; details: Canis lupus familiaris; Cardiac ventricle
Canis familiaris [9] = assay: Activity against harris coronary ligation induced ventricular arrhythmia was measured as percent of initial sinus complexes after dose 2 mg/kg iv; assay type: functional, Canis lupus familiaris, Cardiac ventricle
Canis familiaris [10] = assay: Activity against harris coronary ligation induced ventricular arrhythmia was measured as percent of initial sinus complexes after dose 12.5 mg/kg, po; assay type: functional, Canis lupus familiaris, Cardiac ventricle
Canis familiaris [11] = assay: Activity against harris coronary ligation induced ventricular arrhythmia was measured as percent of final sinus complexes after dose 2 mg/kg, iv; assay type: functional, Canis lupus familiaris, Cardiac ventricle
Canis familiaris [12] = assay: (§1) Activity against harris coronary ligation induced ventricular arrhythmia was measured as percent of final sinus complexes after dose 12.5 mg/kg, po; assay type: functional, Canis lupus familiaris, Cardiac ventricle
Canis familiaris [13] = organism: Canis familiaris; assay: Duration for the antiarrhythmic activity was measured; assay type: functional, Canis lupus familiaris, Heart
Canis familiaris [14] = assay: Activity against harris coronary ligation induced ventricular arrhythmia was measured as percent of final sinus complexes after dose 2 mg/kg iv; assay type: functional, Canis lupus familiaris, Cardiac ventricle
Canis familiaris [15] = assay: Activity against ouabain-induced ventricular arrhythmia was measured as percent of sinus rhythm recovery at dose of 1 mg/kg iv; assay type: functional, Canis lupus familiaris, Cardiac ventricle
Canis familiaris [16] = assay: Activity against harris coronary ligation induced ventricular arrhythmia was measured as percent of initial sinus complexes after dose 5 mg/kg, iv; assay type: functional, Canis lupus familiaris, Cardiac ventricle
Canis familiaris [17] = assay: Activity against harris coronary ligation induced ventricular arrhythmia was measured as percent of final sinus complexes after dose 5 mg/kg, iv; assay type: functional, Canis lupus familiaris, Cardiac ventricle
Canis familiaris [18] = assay: Activity against harris coronary ligation induced ventricaulr arrhythmia was measured as percent of initial sinus complexes after dose 12.5 mg/kg po; assay type: functional, Canis lupus familiaris
Canis familiaris [19] = assay: Activity against harris coronary ligation induced ventricular arrhythmia was measured as percent of initial sinus complexes after dose 2 mg/kg po; assay type: functional, Canis lupus familiaris, Cardiac ventricle
Canis familiaris [20] = assay: Activity against harris coronary ligation induced ventricular arrhythmia was measured as percent of initial sinus complexes after dose 2 mg/kg, iv; assay type: functional, Canis lupus familiaris, Cardiac ventricle
Canis familiaris [21] = assay: Activity against harris coronary ligation induced ventricular arrhythmia was measured as percent of initial sinus complexes after dose 5 mg/kg iv; assay type: functional, Canis lupus familiaris, Cardiac ventricle
Canis familiaris [22] = assay: Activity against harris coronary ligation induced ventricular arrhythmia was measured as percent of final sinus complexes after dose 2 mg/kg, po; assay type: functional, Canis lupus familiaris, Cardiac ventricle
Canis familiaris [23] = assay: Activity against harris coronary ligation induced ventricular arrhythmia was measured as percent of final sinus complexes after dose 5 mg/kg iv; assay type: functional, Canis lupus familiaris, Cardiac ventricle
Canis familiaris [24] = assay: as §1; assay type: functional, Canis lupus familiaris, Cardiac ventricle; remark: listed apart in the source
Canis familiaris [25] = assay: Activity against harris coronary ligation induced ventricular arrhythmia was measured as percent of final sinus complexes after dose 20 mg/kg, po; assay type: functional, Canis lupus familiaris, Cardiac ventricle
Canis familiaris [26] = assay: Activity against harris coronary ligation induced ventricular arrhythmia was measured as percent of initial sinus complexes after dose 1 mg/kg iv; Inactive; assay type: organism-based, Canis lupus familiaris, Cardiac ventricle; parameters: dose 1 mg/kg; details: dog, in vivo
[27] = Toxicity was estimated in mouse as LD50 by intravenous administration; LD50=1000 (40%); assay type: organism-based; details: in vivo
Canis familiaris [28] = assay: Activity against harris coronary ligation induced ventricular arrhythmia was measured as percent of initial sinus complexes after dose mg/kg, iv=2; assay type: functional, Canis lupus familiaris, Cardiac ventricle
Canis familiaris [29] = assay: Activity against harris coronary ligation induced ventricular arrhythmia was measured as percent of final sinus complexes after dose mg/kg, iv=2; assay type: functional, Canis lupus familiaris, Cardiac ventricle

Structure (SMILES) | Duration (Canis familiaris [1]) [min] | LD50 [4] [mg/kg] | SRR (Canis familiaris [7]) | also measured
CNC(=O)Nc1c(OCCN2CCCCCCC2)c(OC)c2occc2c1OC | 30 | 14 |  | ISC (Canis familiaris [2]): inactive; SRR (Canis familiaris [3]): 100%
CCN(CC)CCOc1c(NC(=O)NC)c(OC)c2ccoc2c1OC | >120 | 74 |  | ISC (Canis familiaris [5]): inactive; SRR (Canis familiaris [3]): 100%
CNC(=O)Nc1c(OCCNC(C)C)c(OC)c2occc2c1OC | <30 | 49 |  | SRR (Canis familiaris [6]): 100%
CCCNC(=O)Nc1c(OCCN2CCCCC2)c(OC)c2occc2c1OC |  | 18.5 | inactive | 
COc1c(NC(=O)OC2CCCCC2)c(OCCN2CCCCC2)c(OC)c2occc12 |  | 15 | inactive | 
COc1c(NC(N)=O)c(OCCN2CCCCC2)c(OC)c2occc12 |  | 40 | inactive | 
CNC(=O)Nc1c(OCCCCN2CCCC2)c(OC)c2occc2c1OC |  | 36 | inactive | 
CCOc1c(NC(=O)NC)c(OCCN2CCCCC2)c(OC)c2occc12 |  | 10 |  | SRR (Canis familiaris [8]): inactive
COc1c(NC(=O)C(F)(F)F)c(OCCN2CCCCC2)c(OC)c2occc12 |  | 22 | inactive | 
COc1c(N)c(OCCN2CCCCC2)c(OC)c2occc12 |  | 21 | inactive | 
CNC(=O)Nc1c(OCCN2CCCCCC2)c(OC)c2occc2c1OC | 95 | 31 |  | ISC (Canis familiaris [9]): 3%; SRR (Canis familiaris [3]): 100%; ISC (Canis familiaris [10]): 5%; FSC (Canis familiaris [11]): 78%; FSC (Canis familiaris [12]): 90%
CNC(=O)Nc1c(OC)ccc(OC)c1OCCN1CCCCC1 |  | 135 | inactive | 
COc1c(NC(C)=O)c(OCCN2CCCC2)c(OC)c2occc12 | <30 | 80 |  | SRR (Canis familiaris [6]): 33%
CCOC(=O)Nc1c(OCCN2CCCCC2)c(OC)c2occc2c1OC |  | 13 | inactive | 
CCN(CC)CCCOc1c(NC(=O)NC)c(OC)c2ccoc2c1OC | 15 | 76 |  | SRR (Canis familiaris [3]): 100%
CNC(=O)N(C)c1c(OCCN2CCCCC2)c(OC)c2occc2c1OC | <10 | 66 |  | SRR (Canis familiaris [3]): 100%
COc1c(NC(C)=O)c(OCCN(C)C)c(OC)c2occc12 |  | 138 | inactive | 
COc1c(NC(=O)N(C)C)c(OCCN2CCCCC2)c(OC)c2occc12 | 60 | 25 |  | Duration (Canis familiaris [13]): 40 min; ISC (Canis familiaris [9]): 22%; FSC (Canis familiaris [14]): 52%; SRR (Canis familiaris [6]): 50%
CNC(=O)Nc1c(OC(C)CN2CCCCC2)c(OC)c2occc2c1OC (configuration not stated) | 15 | 23 |  | SRR (Canis familiaris [15]): 100%
CNC(=O)Nc1c(OCCCN2CCCCC2)c(OC)c2occc2c1OC | >100 | 42.5 |  | ISC (Canis familiaris [2]): inactive; SRR (Canis familiaris [3]): 100%
COc1c(NC(=O)NC2CCCCC2)c(OCCN2CCCCC2)c(OC)c2occc12 |  | 42 | inactive | 
CNC(=O)Nc1cc2ccoc2cc1OCCN1CCCCC1 |  | 67 | inactive | 
CNCCOc1c(NC(C)=O)c(OC)c2ccoc2c1OC |  | 96 | inactive | 
COc1c(NC(=O)NC(C)C)c(OCCN2CCCCC2)c(OC)c2occc12 |  | 25 | inactive | 
CNCCOc1c(NC(=O)NC)c(OC)c2ccoc2c1OC |  | 67 | inactive | 
COc1c(NC(C)=O)c(OCCN2CCCCCC2)c(OC)c2occc12 |  | 33 | inactive | 
COC(=O)Nc1c(OCCN2CCCCC2)c(OC)c2occc2c1OC |  | 15 | inactive | 

Structure (SMILES) | Duration (Canis familiaris [1]) [min] | LD50 [4] [mg/kg] | SRR (Canis familiaris [7]) | also measured
CNC(=O)Nc1c(OCCCN2CCCC2)c(OC)c2occc2c1OC | >60 | 32 |  | Duration (Canis familiaris [13]): 20 min; ISC (Canis familiaris [16]): 0%; FSC (Canis familiaris [17]): 9%; SRR (Canis familiaris [6]): 100%
CNC(=O)Nc1c(OCCN2CCOCC2)c(OC)c2occc2c1OC |  | 100 | inactive | 
CNC(=O)Nc1c(OCCCCN2CCCCC2)c(OC)c2occc2c1OC | <30 | 68 |  | SRR (Canis familiaris [6]): 100%
COc1c(NC(C)=O)c(OCCN2CCCCCCC2)c(OC)c2occc12 | >50 | 21 |  | Duration (Canis familiaris [13]): <30 min; ISC (Canis familiaris [9]): 5%; SRR (Canis familiaris [15]): 100%; FSC (Canis familiaris [14]): 17%
CCNC(=O)Nc1c(OCCN2CCCCC2)c(OC)c2occc2c1OC | 120 | 28 |  | Duration (Canis familiaris [13]): <30 min; ISC (Canis familiaris [9]): 25%; SRR (Canis familiaris [3]): 100%; FSC (Canis familiaris [14]): 90%
CNC(=O)Nc1c(OCCN2CCCC2)c(OC)c2occc2c1OC [CAROCAINIDE] | 69 | 88 |  | ISC (Canis familiaris [18]): 19% and 12%; ISC (Canis familiaris [19]): 33%; ISC (Canis familiaris [20]): 15%; SRR (Canis familiaris [3]): 100%; ISC (Canis familiaris [21]): 18%; FSC (Canis familiaris [14]): 75%; FSC (Canis familiaris [22]): 100%; FSC (Canis familiaris [23]): 100%; FSC (Canis familiaris [24]): 81%; FSC (Canis familiaris [12]): 95%; FSC (Canis familiaris [25]): 100%
CNC(=O)Nc1c(OCCCN(C)C)c(OC)c2occc2c1OC |  | 44 | inactive | 
COc1c(NC(C)=O)c(OCCN2CCOCC2)c(OC)c2occc12 |  | 200 | inactive | 
CNC(=O)Nc1c(OCC(C)N2CCCCC2)c(OC)c2occc2c1OC (configuration not stated) | 60 | 36 |  | SRR (Canis familiaris [3]): 100%
COc1c(NC=O)c(OCCN2CCCCC2)c(OC)c2occc12 | 10 | 46 |  | SRR (Canis familiaris [6]): 100%
COc1c(NC(=O)C2CCCCC2)c(OCCN2CCCCC2)c(OC)c2occc12 |  | 7 |  | SRR (Canis familiaris [8]): Estimated as too toxic to be tested
CCCCNC(=O)Nc1c(OCCN2CCCCC2)c(OC)c2occc2c1OC |  | 22 | inactive | 
COc1c(NC(=O)c2ccccc2)c(OCCN2CCCCC2)c(OC)c2occc12 |  | 2.5 |  | SRR (Canis familiaris [8]): Estimated as too toxic to be tested
COc1c(NC(=O)C(C)C)c(OCCN2CCCCC2)c(OC)c2occc12 |  | 78 | inactive | 
CN/C(S)=N/c1c(OCCN2CCCCC2)c(OC)c2occc2c1OC |  | 17 | inactive | 
CNC(=O)Nc1c(OCCNC2CCCCC2)c(OC)c2occc2c1OC | 120 | 9.5 |  | ISC (Canis familiaris [26]): Not Active; SRR (Canis familiaris [15]): 100%
CCN(CC)CCOc1c(NC(C)=O)c(OC)c2ccoc2c1OC |  | 85 | inactive | 
CNC(=O)Nc1c(OC)c(OC)c2occc2c1OCCN1CCCCC1 |  | 200 | inactive | 
CNC(=O)Nc1c(OCCN2CCC2)c(OC)c2occc2c1OC | 10 |  |  | SRR (Canis familiaris [3]): 100%; LD50 [27]: 1000 mg/kg
CNC(=O)Nc1c(OCCN2CCCCC2)c(OC)c2occc2c1OC(C)C |  | 11 | inactive | 
COc1c(NC(C)=O)c(OCCNC2CCCCC2)c(OC)c2occc12 | <30 | 11.5 |  | SRR (Canis familiaris [15]): 50%
COc1c(NC(=O)NC(C)(C)C)c(OCCN2CCCCC2)c(OC)c2occc12 |  | 11.5 | inactive | 
COc1c(NC(=O)Nc2ccccc2)c(OCCN2CCCCC2)c(OC)c2occc12 |  | 9 | inactive | 
CCNCCOc1c(NC(C)=O)c(OC)c2ccoc2c1OC |  | 68 | inactive | 
CCCN(CCC)CCOc1c(NC(=O)NC)c(OC)c2ccoc2c1OC | 45 | 52 |  | Duration (Canis familiaris [13]): 5 min; SRR (Canis familiaris [3]): 100%; ISC (Canis familiaris [28]): 30%; FSC (Canis familiaris [29]): 37%
CNS(=O)(=O)Nc1c(OCCN2CCCCC2)c(OC)c2occc2c1OC |  | 39 | inactive | 
COc1c(NC(C)=O)c(OCCCN2CCCCC2)c(OC)c2occc12 |  | 40.5 | inactive | 
